Columns and labels:
ragweed = experiment: Test A pre-/postemergence herbicide test; type: in vivo, Ambrosia elatior
How it was run: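 Scoring was visual, relative to untreated controls, on a 0–100 scale after about 10 greenhouse days. Preemergence treatment used a directed soil spray over seeded loam/sand; postemergence treatment targeted one- to two-leaf plants of 2–10 cm.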

pigweed = experiment: Test C pre-/postemergence herbicide test; type: in vivo, Amaranthus retroflexus
How it was run: (§1)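 Response scores range from 0, meaning no effect, to 100, meaning complete control, assigned visually by comparison with controls roughly two weeks (13 to 15 days) after spraying. Applications were made preemergence to seeded loam–sand soil and postemergence to 1- to 4-leaf plants.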

velvetleaf = experiment: Test C pre-/postemergence herbicide test; type: in vivo, Abutilon theophrasti
How it was run: as §1

rice = experiment: Test C flooded paddy test; type: in vivo, Oryza sativa; conditions: Flood, scale of 0 to 100 where 0 is no effect and 100 is complete control, 13 to 15 days
How it was run: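 Visual injury scored against controls after 13 to 15 days in the greenhouse, using 0 (no effect) to 100 (complete control). Test compounds went straight into paddy water held 3 cm above the soil surface on 2-leaf-stage plants, with that flood depth maintained for the whole test.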

wheat (winter wheat) = experiment: Test C pre-/postemergence herbicide test; type: in vivo, Triticum aestivum
How it was run: as §1

lambsquarters = experiment: Test C pre-/postemergence herbicide test; type: in vivo, Chenopodium album
How it was run: as §1

crabgrass, large = experiment: Test C pre-/postemergence herbicide test; type: in vivo, Digitaria sanguinalis
How it was run: as §1

[1] = Postemergence, 125 g ai/ha, visual rating on 0 to 100 scale (0 no effect, 100 complete control), approx. 10 days
[2] = Postemergence, 500 g ai/ha, 0 to 100 scale (0 no effect, 100 complete control)
[3] = Preemergence, 125 g ai/ha, 0 to 100 scale where 0 is no effect and 100 is complete control
[4] = Postemergence, 31 g ai/ha, scale 0 to 100 (0 no effect, 100 complete control)
[5] = Postemergence, 62 g ai/ha, scale 0 (no effect) to 100 (complete control)
[6] = Postemergence, 125 g ai/ha, scale 0 to 100 (0 no effect, 100 complete control)
[7] = Postemergence, 250 g ai/ha, scale 0 to 100 (0 no effect, 100 complete control)
[8] = Preemergence, 31 g ai/ha, scale 0 to 100, 0 is no effect and 100 is complete control
[9] = Preemergence, 62 g ai/ha, scale 0 to 100 (0 no effect, 100 complete control)
[10] = Preemergence, 125 g ai/ha, scale 0 to 100 (0 no effect, 100 complete control)
[11] = Preemergence, 500 g ai/ha, visual rating on 0 to 100 scale (0 no effect, 100 complete control)
[12] = Preemergence, 125 g ai/ha, scale 0 to 100

## CN1CC(c2ccc(F)c(F)c2)C(C(=O)Nc2cccc(F)c2F)C1=O (stereo not shown) [Compound 303]
ragweed; [1]
  Plant response rating, Ragweed: 20
ragweed; [2]
  Plant response rating, Ragweed: 40
ragweed; [3]
  Plant response rating, Ragweed: 0
pigweed; [4]
  Plant response rating, Pigweed: 0
pigweed; [5]
  Plant response rating, Pigweed: 0
pigweed; [6]
  Plant response rating, Pigweed: 10
pigweed; [7]
  Plant response rating, Pigweed: 25
pigweed; [8]
  Pigweed plant response rating: 35
pigweed; [9]
  Pigweed plant response rating: 55
pigweed; [10]
  Plant response rating, Pigweed: 65
pigweed; Preemergence, 250 g ai/ha
  Plant response rating (scale of 0 to 100), Pigweed: 80
velvetleaf; [4]
  Plant response rating, Velvetleaf: 35
velvetleaf; [5]
  Plant response rating, Velvetleaf: 0
velvetleaf; [6]
  Plant response rating, Velvetleaf: 25
velvetleaf; [7]
  Plant response rating, Velvetleaf: 35
velvetleaf; [8]
  Velvetleaf plant response rating: 10
velvetleaf; [9]
  Velvetleaf plant response rating: 25
velvetleaf; [10]
  Plant response rating, Velvetleaf: 50
velvetleaf; Preemergence, 250 g ai/ha
  Plant response rating (scale of 0 to 100), Velvetleaf: 55
rice; 31 g ai/ha
  Plant response rating, Rice: 0
rice; 62 g ai/ha
  Plant response rating, Rice: 0
rice; 125 g ai/ha
  Plant response rating, Rice: 0
rice; 250 g ai/ha
  Plant response rating, Rice: 0
Wheat (winter wheat); [4]
  Plant response rating, Wheat: 0
Wheat (winter wheat); [5]
  Plant response rating, Wheat: 0
Wheat (winter wheat); [6]
  Plant response rating, Wheat: 0
Wheat (winter wheat); [7]
  Plant response rating, Wheat: 0
Wheat (winter wheat); [8]
  Wheat plant response rating: 0
Wheat (winter wheat); [9]
  Wheat plant response rating: 75
Wheat (winter wheat); Preemergence, 250 g ai/ha
  Plant response rating (scale of 0 to 100), Wheat: 90
lambsquarters; [4]
  Plant response rating, Lambsquarters: 35
lambsquarters; [5]
  Plant response rating, Lambsquarters: 85
lambsquarters; [6]
  Plant response rating, Lambsquarters: 65
lambsquarters; [7]
  Plant response rating, Lambsquarters: 80
lambsquarters; [8]
  Lambsquarters plant response rating: 55
lambsquarters; [9]
  Lambsquarters plant response rating: 60
lambsquarters; [10]
  Plant response rating, Lambsquarters: 65
lambsquarters; Preemergence, 250 g ai/ha
  Plant response rating (scale of 0 to 100), Lambsquarters: 80
crabgrass, large; [4]
  Plant response rating, Crabgrass, Large: 0
crabgrass, large; [5]
  Plant response rating, Crabgrass, Large: 40
crabgrass, large; [6]
  Plant response rating, Crabgrass, Large: 65
crabgrass, large; [7]
  Plant response rating, Crabgrass, Large: 90
crabgrass, large; [8]
  Crabgrass, Large plant response rating: 95
crabgrass, large; [9]
  Crabgrass, Large plant response rating: 98
crabgrass, large; [10]
  Plant response rating, Crabgrass, Large: 98
crabgrass, large; Preemergence, 250 g ai/ha
  Plant response rating (scale of 0 to 100), Crabgrass, Large: 100

## CC(C)c1cccc(C2CNC(=O)C2C(=O)Nc2ccccc2F)c1 (stereo not shown) [Compound 318]
ragweed; [1]
  Plant response rating, Ragweed: 0
ragweed; [2]
  Plant response rating, Ragweed: 30
ragweed; [3]
  Plant response rating, Ragweed: 20
ragweed; [11]
  Ragweed plant response rating: 40
pigweed; [8]
  Pigweed plant response rating: 0
pigweed; [9]
  Pigweed plant response rating: 20
pigweed; [12]
  Plant response rating, Pigweed: 20
velvetleaf; [9]
  Velvetleaf plant response rating: 10
velvetleaf; [12]
  Plant response rating, Velvetleaf: 25
rice; 31 g ai/ha
  Plant response rating, Rice: 0
rice; 62 g ai/ha
  Plant response rating, Rice: 0
rice; 125 g ai/ha
  Plant response rating, Rice: 10
rice; 250 g ai/ha
  Plant response rating, Rice: 15
Wheat (winter wheat); [9]
  Wheat plant response rating: 0
Wheat (winter wheat); [12]
  Plant response rating, Wheat: 5
lambsquarters; [8]
  Lambsquarters plant response rating: 10
lambsquarters; [9]
  Lambsquarters plant response rating: 55
lambsquarters; [12]
  Plant response rating, Lambsquarters: 50
lambsquarters; Preemergence, 250 g ai/ha
  Plant response rating (scale of 0 to 100), Lambsquarters: 60
crabgrass, large; [8]
  Crabgrass, Large plant response rating: 95
crabgrass, large; [9]
  Crabgrass, Large plant response rating: 98
crabgrass, large; [12]
  Plant response rating, Crabgrass, Large: 98
crabgrass, large; Preemergence, 250 g ai/ha
  Plant response rating (scale of 0 to 100), Crabgrass, Large: 100

## O=C1NCC(c2cccc(OC(F)F)c2)C1C(=O)Nc1ccccc1F (stereo not shown) [Compound 323]
ragweed; [1]
  Plant response rating, Ragweed: 0
ragweed; [2]
  Plant response rating, Ragweed: 20
ragweed; [3]
  Plant response rating, Ragweed: 20
ragweed; [11]
  Ragweed plant response rating: 80
pigweed; [4]
  Plant response rating, Pigweed: 0
pigweed; [5]
  Plant response rating, Pigweed: 5
pigweed; [6]
  Plant response rating, Pigweed: 25
pigweed; [7]
  Plant response rating, Pigweed: 25
pigweed; [8]
  Pigweed plant response rating: 35
pigweed; [9]
  Pigweed plant response rating: 35
pigweed; [12]
  Plant response rating, Pigweed: 55
velvetleaf; [4]
  Plant response rating, Velvetleaf: 0
velvetleaf; [5]
  Plant response rating, Velvetleaf: 20
velvetleaf; [6]
  Plant response rating, Velvetleaf: 0
velvetleaf; [7]
  Plant response rating, Velvetleaf: 0
velvetleaf; [9]
  Velvetleaf plant response rating: 15
velvetleaf; [12]
  Plant response rating, Velvetleaf: 40
rice; 31 g ai/ha
  Plant response rating, Rice: 0
rice; 62 g ai/ha
  Plant response rating, Rice: 0
rice; 125 g ai/ha
  Plant response rating, Rice: 0
rice; 250 g ai/ha
  Plant response rating, Rice: 30
Wheat (winter wheat); [4]
  Plant response rating, Wheat: 0
Wheat (winter wheat); [5]
  Plant response rating, Wheat: 0
Wheat (winter wheat); [6]
  Plant response rating, Wheat: 0
Wheat (winter wheat); [7]
  Plant response rating, Wheat: 0
Wheat (winter wheat); [9]
  Wheat plant response rating: 30
Wheat (winter wheat); [12]
  Plant response rating, Wheat: 40
lambsquarters; [4]
  Plant response rating, Lambsquarters: 10
lambsquarters; [5]
  Plant response rating, Lambsquarters: 10
lambsquarters; [6]
  Plant response rating, Lambsquarters: 65
lambsquarters; [7]
  Plant response rating, Lambsquarters: 65
lambsquarters; [8]
  Lambsquarters plant response rating: 40
lambsquarters; [9]
  Lambsquarters plant response rating: 50
lambsquarters; [12]
  Plant response rating, Lambsquarters: 75
lambsquarters; Preemergence, 250 g ai/ha
  Plant response rating (scale of 0 to 100), Lambsquarters: 95
crabgrass, large; [4]
  Plant response rating, Crabgrass, Large: 0
crabgrass, large; [5]
  Plant response rating, Crabgrass, Large: 40
crabgrass, large; [6]
  Plant response rating, Crabgrass, Large: 70
crabgrass, large; [7]
  Plant response rating, Crabgrass, Large: 80
crabgrass, large; [8]
  Crabgrass, Large plant response rating: 95
crabgrass, large; [9]
  Crabgrass, Large plant response rating: 98
crabgrass, large; [12]
  Plant response rating, Crabgrass, Large: 98
crabgrass, large; Preemergence, 250 g ai/ha
  Plant response rating (scale of 0 to 100), Crabgrass, Large: 100

Reference: patent US10294202B2, “Pyrrolidinones as herbicides” (FMC Corporation, priority 2013, dated 2019)
